In PubChem BioAssay (NCI):
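Cultured in 96-well plates, cells were exposed to test compound for 48 hours across five concentrations. The concentration for 50% growth inhibition is given as GI50. The concentration for full growth arrest is given as TGI.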

Tests used:
Experiment in all cases: NCI tumour cell line growth inhibition, 48 h; in the data active means GI50 below about 0.43 µM; inactive means the rest
[1] = test system: OVCAR-8 ovarian
[2] = test system: SF-268 CNS
[3] = test system: SNB-19 CNS
[4] = test system: SN12C renal
[5] = test system: SNB-75 CNS
[6] = test system: NCI-H522 lung
[7] = test system: HS 578T breast
[8] = test system: LOX IMVI melanoma
[9] = test system: EKVX NSCLC
[10] = test system: UACC-62 melanoma
[11] = test system: NCI-H23 lung
[12] = test system: BT-549 breast
[13] = test system: MDA-MB-231 breast
[14] = test system: HL-60(TB) leukemia
[15] = test system: SK-MEL-2 melanoma
[16] = test system: HOP-62 NSCLC
[17] = test system: UACC-257 melanoma
[18] = test system: OVCAR-5 ovarian
[19] = test system: SK-MEL-5 melanoma
[20] = test system: DU-145 prostate
[21] = test system: M14 melanoma
[22] = test system: K-562 leukemia
[23] = test system: IGROV1 ovarian
[24] = test system: HT29 colon
[25] = test system: SW-620 colon
[26] = test system: KM12 colon
[27] = test system: HCT-116 colon
[28] = test system: NCI-H226 lung
[29] = test system: MCF7 breast
[30] = test system: HCT-15 colon
[31] = test system: HCC-2998 colon
[32] = test system: SR leukemia
[33] = test system: SK-MEL-28 melanoma

COc1ccc2[nH]c(O)c(N=NC(=O)c3oc4ccccc4c3C)c2c1
2750 nM: TGI [5]
4.43 µM: TGI [11]
5.1 µM: TGI [13]
56.8 µM: TGI [2]
> 100 µM: TGI [1] | TGI [4] | TGI [6] | TGI [8] | TGI [9] | TGI [10] | TGI [14]
7.72 µM: TGI [7]
33.7 µM: TGI [12]
4.02 µM: TGI [16]
6.62 µM: TGI [15]
16.2 µM: TGI [3]
inactive: GI50 [1] 3.22 µM | GI50 [2] 5.18 µM | GI50 [3] 3.45 µM | GI50 [4] 2.82 µM | GI50 [5] 1250 nM | GI50 [6] 6.07 µM | GI50 [7] 2410 nM | GI50 [8] 3.16 µM | GI50 [9] 2940 nM | GI50 [10] 5.19 µM | GI50 [11] 1860 nM | GI50 [12] 5.38 µM | GI50 [13] 2070 nM | GI50 [14] > 100 µM | GI50 [15] 2560 nM | GI50 [16] 1920 nM

Cn1cc(-c2nc(-c3c[nH]c4ccncc34)cs2)c2cc(Br)ccc21
3.27 µM: TGI [18]
3.62 µM: TGI [15]
2950 nM: TGI [19]
2.84 µM: TGI [13]
3.28 µM: TGI [20]
inactive: GI50 [5] 1230 nM | GI50 [17] 1990 nM | GI50 [18] 1.81 µM | GI50 [19] 1600 nM | GI50 [20] 1820 nM | GI50 [13] 1410 nM | GI50 [15] 2000 nM
3.52 µM: TGI [17]
2540 nM: TGI [5]

COc1ccc(CN2c3ccccc3Sc3ccccc32)c(F)c1
active: GI50 [21] 38.1 nM | GI50 [22] 38 nM | GI50 [24] 35 nM | GI50 [25] 36.3 nM | GI50 [26] 43.2 nM | GI50 [27] 39.8 nM | GI50 [29] 32.7 nM | GI50 [30] 37.9 nM | GI50 [32] 59.6 nM
> 100 µM: TGI [4] | TGI [21] | TGI [22] | TGI [17] | TGI [23] | TGI [24] | TGI [18] | TGI [25] | TGI [26] | TGI [27] | TGI [13] | TGI [28] | TGI [29] | TGI [30] | TGI [31] | TGI [32] | TGI [33]
inactive: GI50 [4] 10.6 µM | GI50 [17] > 100000 nM | GI50 [23] 4.56 µM | GI50 [18] 4.39 µM | GI50 [13] 5090 nM | GI50 [28] 13 µM | GI50 [31] 5.06 µM | GI50 [33] 5.05 µM
